# Measurements reported in publication PMC5556071, “ATR inhibition facilitates targeting of leukemia dependence on convergent nucleotide biosynthetic pathways” (Nature Communications, 2017).
# “And” between values parts separate entries of the source, which are not always exact repeats. Equal values may be shown once.
# Tested on: CEM cells
# Assay: Quantitative global proteomics (nLC-MS/MS), cells 12 h after release from G1 arrest
# Assay type: cell-based, human
# Set-up: key to RNR Level / dCK Level: ↓: partial decrease/inhibition; ↓↓↓: nearly complete inhibition; ↑: increase; ⟷: no change
# Settings: for Protein expression level normalized to control (NT): Eukaryotic translation initiation factor 6 (EIF6) / Protein expression level normalized to control (NT): Ribonucleoside-diphosphate reductase subunit M2 (RRM2) / Protein expression level normalized to control (NT): Translationally-controlled tumor protein (TPT1): 12 h following release from G1 arrest, independent analyses #1-#4; for RNR Level / dCK Level: summary Fig. 2g, CEM cells
# Experimental: To investigate the molecular mechanisms underlying the metabolic consequences of ATR and dCK inhibition, global changes in protein expression were assessed in CEM cells using quantitative nano-LC tandem MS (nLC-MS/MS) (Fig. 2a). Chemical isotope coding following reductive dimethylation of peptide N-termini and lysine primary amines with differential stable isotopes (light:medium:heavy) was used to compare expression of experimental (VE-822, dCKi and VE-822 + dCKi) samples to controls (untreated, NT) by mixing equal proportions for triplex nLC-MS/MS quantitative analyses. The data set was filtered for proteins identified in all treatment groups in three independent experiments with coefficients of variation <20%. This yielded 1757 proteins with relative fold changes in treated vs. untreated cells ranging from 0.45 to 1.83. […] Protein levels of both RNR subunits, RRM1 and RRM2, as well as thymidylate synthase decreased by more than 20% following ATR inhibition (Fig. 2c). Changes in the expression of de novo enzymes observed in synchronous cells also occurred with ATR inhibition in asynchronous CEM cells (Fig. 2d and Supplementary Data 3), thereby arguing against the possibility of experimental artifacts introduced by Palbociclib-mediated cell cycle synchronization. The reduction in RRM2 levels induced by ATR inhibition was accompanied by an ~ 50% decrease in the phosphorylation of RRM2 on threonine 33 (pT33) (Fig. 2e), a phosphosite previously linked to the RRM2 stability. […]
# Proteomic analyzes. CCRF-CEM cells were treated ± with a CDK4/6 inhibitor, PD-0332991 (Selleckchem) for 18 h to arrest at G1 phase. Cells were then washed twice with PBS and released in fresh media with treatment at a density of 1 x 10^6 cells/mL. Cells were collected at 12 h, washed twice with ice-cold PBS, and lysed by trituration using 1 mL per 5 x 10^7 cells of 0.5% sodium deoxycholate, 12 mM sodium lauryl sarcosine, and 50 mM triethylammonium bicarbonate, pH 8.0. Lysates were heated at 95 °C for 5 min and water bath sonicated at room temperature (RT) for 5 min. Bicinchoninic acid protein assay (Pierce) was performed to determine protein concentration. Disulfide bridges were reduced with 5 mM tris(2-carboxyethyl)phosphine (final concentration) at RT for 30 min with subsequent treatment with 10 mM iodoacetamide (final concentration) at RT in the dark for 30 min. Solutions were diluted 1:5 (v:v) with 50 mM triethylammonium bicarbonate. Proteins were cleaved with sequencing grade trypsin (Promega) at 1:100 (enzyme:protein) for 4 h at 37 °C followed by a second aliquot of trypsin 1:100 (enzyme:protein) overnight at 37 °C. Samples were acidified with 0.5% trifluoroacetic acid (final concentration), vortexed rapidly for 5 min, and centrifuged (16,000 x g for 5 min, RT) to pellet sodium deoxycholate. Supernatants were transferred to new microcentrifuge tubes and 20 µg of total peptide were desalted using C18 StageTips as previously described2. On-column dimethyl labeling using C18 StageTips was performed as previously described3. Briefly, StageTips were equilibrated with 20 μL of 250 mM 2-(N-morpholino)ethanesulfonic acid (MES) pH 5.5. Tryptic peptides were dimethyl labeled using 60 mM sodium cyanoborohydride, 0.4% formaldehyde, and 250 mM MES pH 5.5 for 10 min. Dimethyl labeled peptides were eluted from StageTips using 20 μL of 80% acetonitrile with 0.1% trifluoroacetic acid and lyophilized to dryness. Due to the nature of comparing 4 sample groups and being limited to 3 channels for stable isotope reductive amination labeling, two independent multiplexed experiments were run with each
SMILES,Protein expression level normalized to control (NT): Eukaryotic translation initiation factor 6 (EIF6),Protein expression level normalized to control (NT): Ribonucleoside-diphosphate reductase subunit M2 (RRM2),Protein expression level normalized to control (NT): Translationally-controlled tumor protein (TPT1),"decrease of RRM1 protein level (following ATR inhibition, 12 h)","decrease of RRM2 protein level (following ATR inhibition, 12 h)","decrease of thymidylate synthase protein level (following ATR inhibition, 12 h)",RNR Level,dCK Level,Protein expression level normalized to control (NT): Eukaryotic translation initiation factor 6 (EIF6) (listed as DI-82),Protein expression level normalized to control (NT): Ribonucleoside-diphosphate reductase subunit M2 (RRM2) (listed as DI-82),Protein expression level normalized to control (NT): Translationally-controlled tumor protein (TPT1) (listed as DI-82)
CNCc1ccc(-c2cc(-c3nc(-c4ccc(S(=O)(=O)C(C)C)cc4)cnc3N)on2)cc1 [VE-822],1.09 and 1.10 and 1.08,0.57 and 0.45 and 0.53,0.80 and 0.79 and 0.85,> 20%,> 20%,> 20%,↓,⟷,–,–,–
COc1ccc(-c2nc([C@@H](C)Sc3nc(N)cc(N)n3)c(C)s2)cc1OCCNS(C)(=O)=O [dCKi],–,–,–,–,–,–,⟷,⟷,1.00 and 0.98 and 0.95 and 0.99,1.17 and 0.99 and 1.08 and 1.15,0.99 and 0.98 and 0.95
